This is an account of results in patent publication US7504391B2, “Selective D1/D5 receptor antagonists for the treatment of obesity and CNS disorders” (Schering Corporation, priority 2003, dated 2009).

The structures appear in SMILES notation. Some results are limits rather than exact numbers.

The first assay deals with T1, human D1 receptors (Homo sapiens, UniProt P21728).
T1 construct: expressed in transfected cells; host or cells: Ltk- cells (mouse fibroblasts); membrane preparation
T1 sequence (P21728 whole entry): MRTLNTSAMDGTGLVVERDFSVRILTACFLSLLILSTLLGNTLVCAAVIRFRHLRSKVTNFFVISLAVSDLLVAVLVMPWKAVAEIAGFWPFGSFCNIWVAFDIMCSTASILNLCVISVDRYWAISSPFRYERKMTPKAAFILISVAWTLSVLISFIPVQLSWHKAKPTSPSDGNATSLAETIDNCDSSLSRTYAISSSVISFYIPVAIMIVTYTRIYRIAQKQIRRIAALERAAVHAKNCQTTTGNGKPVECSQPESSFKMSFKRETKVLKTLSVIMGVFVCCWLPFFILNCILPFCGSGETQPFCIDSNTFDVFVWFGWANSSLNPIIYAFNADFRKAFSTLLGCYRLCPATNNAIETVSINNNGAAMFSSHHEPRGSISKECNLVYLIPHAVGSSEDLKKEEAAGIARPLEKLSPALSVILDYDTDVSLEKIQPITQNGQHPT
In words: Radioligand binding competition assay at D1 receptor.
Settings: not given
The protocol:
(§1) Affinity values (Ki) of compounds at human D1 and D2 receptors were ascertained using radioligand binding competition assays. Ltk-cells expressing D1 and D2 (long variant) receptors were lysed in hypotonic buffer for membrane preparation. Membranes were incubated with various concentrations of test compound and 1 nM [3H] of a compound of formula III and 0.2 nM [3H] Methylspiperone for D1 and D2 assays, respectively. Non-specific binding was defined as binding in the presence of 10 micromolar of a compound of formula III for D1 assays and 10 micromolar butaclamol for […]. Following incubation to equilibrium (1 hour at room temperature), bound radioligand was separated from free by rapid filtration. Bound radioactivity on the dried filters was quantified by liquid scintillation counting.
(§2) Selectivity is determined by dividing Ki for D2 receptor by Ki for D1 receptor.
Regarding `CN1CCc2cc(Cl)c(O)cc2[C@H]2c3cc(S(=O)(=O)NCc4ccccc4)ccc3CC[C@@H]21` [15l], the Ki was 10 to 50 nM. The same measure, in the same setting: in the case of `CC(=O)Nc1ccc2c(c1)CC[C@H]1[C@H]2c2cc(O)c(Cl)cc2CCN1C` [18a4] it was under 10 nM; in that of `CN1CCc2cc(Cl)c(O)cc2[C@H]2c3ccc(NC(=O)C4CCCC4)cc3CC[C@@H]21` [18a6], under 5 nM. The same measure, in the same setting: the figure for `CN1CCc2cc(Cl)c(O)cc2[C@H]2c3ccc(NC(=O)CC4CC4)cc3CC[C@@H]21` [18a8] is under 10 nM; for `CN1CCc2cc(Cl)c(O)cc2[C@H]2c3cccc(NC(=O)c4cccc5ccccc45)c3CC[C@@H]21` [18b15] it is 10 to 50 nM; for `CN1CCc2cc(Cl)c(O)cc2[C@H]2c3cccc(NS(=O)(=O)c4ccc(F)cc4)c3CC[C@@H]21` [19a6] it is under 10 nM. The same measure, in the same setting: in the case of `CCS(=O)(=O)Nc1ccc2c(c1)CC[C@H]1[C@H]2c2cc(O)c(Cl)cc2CCN1C` [19b5] it was under 5 nM.

`CCCS(=O)(=O)Nc1ccc2c(c1)CC[C@H]1[C@H]2c2cc(O)c(Cl)cc2CCN1C` [19b23] returned a Ki of under 5 nM. The same measure, in the same setting: the figure for `CN1CCc2cc(Cl)c(O)cc2[C@H]2c3ccc(NS(=O)(=O)c4cccc(C#N)c4)cc3CC[C@@H]21` [19b24] is under 10 nM; for `CN1CCc2cc(Cl)c(O)cc2[C@H]2c3ccc(NS(=O)(=O)Cc4ccccc4)cc3CC[C@@H]21` [19b31] it is under 5 nM; for `CN1CCc2cc(Cl)c(O)cc2[C@H]2c3ccc(NS(=O)(=O)N(C)C)cc3CC[C@@H]21` [19b32] it is under 5 nM. On the same count and under the same terms, the figure for `CN1CCc2cc(Cl)c(O)cc2[C@H]2c3cccc(NC(=O)N4CCCC4)c3CC[C@@H]21` [20a7] is under 5 nM.

`CN(C)C(=O)Nc1cccc2c1CC[C@H]1[C@H]2c2cc(O)c(Cl)cc2CCN1C` [20a8]: the Ki was under 5 nM.

Turning to `CN1CCc2cc(Cl)c(O)cc2[C@H]2c3cccc(NC(=O)Nc4cc(Cl)nc(Cl)c4)c3CC[C@@H]21` [20a33], the Ki fell in the range of 10 to 50 nM. Still for that read-out and setting: in the case of `CN1CCc2cc(Cl)c(O)cc2[C@H]2c3ccc(NC(=O)Nc4ccccc4Cl)cc3CC[C@@H]21` [20b5] it was under 10 nM; in that of `CCNC(=O)Nc1ccc2c(c1)CC[C@H]1[C@H]2c2cc(O)c(Cl)cc2CCN1C` [20b6], under 5 nM; in that of `CN1CCc2cc(Cl)c(O)cc2[C@H]2c3ccc(NC(=O)Nc4c(Cl)cccc4Cl)cc3CC[C@@H]21` [20b30], under 5 nM. The same measure, in the same setting: in the case of `CN1CCc2cc(Cl)c(O)cc2[C@H]2c3ccc(NCC4CCCC4)cc3CC[C@@H]21` [21a2] it was under 5 nM; in that of `COc1ccc(OC(=O)Nc2ccc3c(c2)CC[C@H]2[C@H]3c3cc(O)c(Cl)cc3CCN2C)cc1` [24a3], under 5 nM. Same read-out and setting: the figure for `COc1ccc(OC(=O)Nc2cccc3c2CC[C@H]2[C@H]3c3cc(O)c(Cl)cc3CCN2C)cc1` [24b2] is under 5 nM.

Staying with this assay, now noted: class by Ki (D1) and selectivity (Ki D2 / Ki D1); human D1 and D2 (long variant) receptors, Ltk- cell membranes; read-out: D1 binding and D2:D1 Selectivity.
In the case of `CN1CCc2cc(Cl)c(O)cc2[C@H]2c3cccc(CNCc4ccccc4)c3CC[C@@H]21` [5a1], the Ki is under 5 nM. Consider `CN1CCc2cc(Cl)c(O)cc2[C@H]2c3cccc(CNC(c4ccccc4)c4ccccc4)c3CC[C@@H]21` [5a14], for which the Ki is under 10 nM.

On to `CN1CCc2cc(Cl)c(O)cc2[C@H]2c3cccc(CNC4CC4)c3CC[C@@H]21` [5a38], for which the Ki was under 5 nM. Still for that read-out and setting: in the case of `CN(C)Cc1cccc2c1CC[C@H]1[C@H]2c2cc(O)c(Cl)cc2CCN1C` [5a50] it was under 5 nM; in that of `CN1CCc2cc(Cl)c(O)cc2[C@H]2c3cc(CNc4cccnc4)ccc3CC[C@@H]21` [5b46], under 100 nM. On the same count and under the same terms, in the case of `C[C@@H](NCc1ccc(C2CN(C)CCc3cc(Cl)c(O)cc32)cc1)C1CCCCC1` (stereo partly drawn) [5c16] it was under 5 nM; in that of `CC(=O)N(Cc1cccc2c1CC[C@H]1[C@H]2c2cc(O)c(Cl)cc2CCN1C)c1ccccc1` [6a6], 10 to 50 nM; in that of `CN1CCc2cc(Cl)c(O)cc2[C@H]2c3cc(CN(Cc4ccccc4)C(=O)c4ccccc4)ccc3CC[C@@H]21` [6b1], 10 to 50 nM. On the same count and under the same terms, in the case of `CC(=O)N(Cc1ccc(C2CN(C)CCc3cc(Cl)c(O)cc32)cc1)C1CCC1` (stereo not drawn) [6c26] it was under 5 nM; in that of `CN1CCc2cc(Cl)c(O)cc2[C@H]2c3cc(CN(Cc4ccccc4)S(C)(=O)=O)ccc3CC[C@@H]21` [7b7], under 100 nM; in that of `CN1CCc2cc(Cl)c(O)cc2C(c2ccc(CN(C3CCC3)S(C)(=O)=O)cc2)C1` (stereo not drawn) [7c16], under 5 nM. In the case of `CN1CCc2cc(Cl)c(O)cc2C(c2ccc(CN(C)S(=O)(=O)c3ccccc3)cc2)C1` (stereo not drawn) [7c18], the Ki is under 5 nM. Take `CCNC(=O)N(Cc1ccc(F)cc1)Cc1cccc2c1CC[C@H]1[C@H]2c2cc(O)c(Cl)cc2CCN1C` [8a3]: the Ki was 10 to 50 nM. On the same count and under the same terms, in the case of `CC(C)NC(=O)N(Cc1ccc2c(c1)[C@@H]1c3cc(O)c(Cl)cc3CCN(C)[C@H]1CC2)c1ccccc1` [8b11] it was under 100 nM; in that of `CCCN(Cc1ccc(C2CN(C)CCc3cc(Cl)c(O)cc32)cc1)C(=O)Nc1ccccc1` (stereo not drawn) [8c33], under 10 nM. The same measure, in the same setting: in the case of `CN1CCc2cc(Cl)c(O)cc2C2c3cccc(C(=O)N4CCN(c5ccccn5)CC4)c3CCC21` (stereo not drawn) [13a2] it was under 10 nM. Turning to `CN1CCN(C(=O)c2cccc3c2CCC2C3c3cc(O)c(Cl)cc3CCN2C)CC1` (stereo not drawn) [13a6], the Ki is 10 to 50 nM. The same measure, in the same setting: the figure for `CN1CCc2cc(Cl)c(O)cc2C2c3cccc(C(=O)NCCc4ccccc4)c3CCC21` (stereo not drawn) [13a7] is under 5 nM; for `CN(C)C(=O)c1cccc2c1CCC1C2c2cc(O)c(Cl)cc2CCN1C` (stereo not drawn) [13a12] it is under 10 nM. The same measure, in the same setting: the figure for `CN1CCc2cc(Cl)c(O)cc2C2c3cccc(C(=O)NCc4ccccn4)c3CCC21` (stereo not drawn) [13a14] is under 10 nM; for `CN1CCc2cc(Cl)c(O)cc2C2c3cccc(C(=O)NCc4cccnc4)c3CCC21` (stereo not drawn) [13a16] it is under 10 nM; for `CN1CCc2cc(Cl)c(O)cc2C2c3cccc(C(=O)NCc4ccncc4)c3CCC21` (stereo not drawn) [13a19] it is under 10 nM. Same read-out and setting: in the case of `CN1CCc2cc(Cl)c(O)cc2C2c3cccc(C(=O)NCCc4ccccn4)c3CCC21` (stereo not drawn) [13a20] it was under 10 nM; in that of `CN1CCc2cc(Cl)c(O)cc2C2c3cccc(C(=O)NCc4ccccc4)c3CCC21` (stereo not drawn) [13a21], under 10 nM. Turning to `CNC(=O)c1cccc2c1CCC1C2c2cc(O)c(Cl)cc2CCN1C` (stereo not drawn) [13a24], the Ki was under 5 nM. As for `CC(NC(=O)c1ccc(C2CN(C)CCc3cc(Cl)c(O)cc32)cc1)c1ccccc1` (stereo not drawn) [13d1], the Ki was in the range of 10 to 50 nM. On the same count and under the same terms, the figure for `CN1CCc2cc(Cl)c(O)cc2[C@H]2c3ccc(NC(=O)C4CC4)cc3CC[C@@H]21` [18a1] is under 5 nM; for `CN1CCc2cc(Cl)c(O)cc2[C@H]2c3ccc(NS(C)(=O)=O)cc3CC[C@@H]21` [19b1] it is under 5 nM; for `CN1CCc2cc(Cl)c(O)cc2[C@H]2c3ccc(NCc4ccccc4)cc3CC[C@@H]21` [21a1] it is under 5 nM. Still for that read-out and setting: in the case of `CC(=O)N(CC1CCCC1)c1ccc2c(c1)CC[C@H]1[C@H]2c2cc(O)c(Cl)cc2CCN1C` [22a2] it was 10 to 50 nM; in that of `CC(=O)N(CCCCc1ccccc1)c1ccc2c(c1)[C@@H]1c3cc(O)c(Cl)cc3CCN(C)[C@H]1CC2` [22b1], 10 to 50 nM; in that of `COC(=O)Nc1ccc2c(c1)CC[C@H]1[C@H]2c2cc(O)c(Cl)cc2CCN1C` [24a1], under 5 nM. On the same count and under the same terms, in the case of `CCOC(=O)Nc1ccc2c(c1)CC[C@H]1[C@H]2c2cc(O)c(Cl)cc2CCN1C` [24a2] it was under 5 nM; in that of `CN1CCc2cc(Cl)c(O)cc2[C@H]2c3cccc(-c4ncc[nH]4)c3CC[C@@H]21` [25c], under 5 nM; in that of `CN1CCc2cc(Cl)c(O)cc2[C@H]2c3cccc(C#N)c3CC[C@@H]21` [27a], under 10 nM. On to `Oc1cc2c(cc1Cl)CCN[C@H]1CCc3c(-c4ccncc4)cccc3[C@H]21` [29c], for which the Ki was under 5 nM. Turning to `CS(=O)(=O)Nc1ccc2c(c1)CC[C@@H]1NCCc3cc(Cl)c(O)cc3[C@@H]21` [30a], the Ki is under 10 nM. Same read-out and setting: the figure for `CC(=O)N(Cc1ccc([C@H]2CNCCc3cc(Cl)c(O)cc32)cc1)C1CCC1` [34a2] is under 10 nM; for `CN1CCc2cc(Cl)c(O)cc2C(c2ccc(NS(C)(=O)=O)cc2)C1` (stereo not drawn) [35a1] it is under 5 nM. Still for that read-out and setting: the figure for `CN1CCc2cc(Cl)c(O)cc2C(c2ccc(NS(=O)(=O)c3ccccc3)cc2)C1` (stereo not drawn) [35a2] is under 10 nM; for `CN1CCc2cc(Cl)c(O)cc2[C@H]2c3ccc(N(C)S(C)(=O)=O)cc3CC[C@@H]21` [compound 23] it is under 5 nM.

The same assay, now with this note: membranes of Ltk- cells expressing human D1; 1 nM [3H] compound of formula III; 1 hour at room temperature; read-out: Ki (D1).
For the compound `CN1CCc2cc(Cl)c(O)cc2[C@H]2c3ccc(NS(C)(=O)=O)cc3CC[C@@H]21` [19b1], the Ki came to 0.45 nM.

The test system of the next assay is human D1 receptors. The assay is described as above. The settings on record: Ki for D2 receptor divided by Ki for D1 receptor. The protocol: as §1, §2
With `CN1CCc2cc(Cl)c(O)cc2[C@H]2c3ccc(NS(C)(=O)=O)cc3CC[C@@H]21` [19b1], the “D2:D1 ratio (selectivity)” value came out at 6642.
